# Biological target: T1, α7-subtype of nicotinic receptors (Rattus norvegicus, UniProt Q05941)
# T1 construct: Cerebral cortices from male Wistar rats (150-250 g) are homogenised; from tissue; host or cells: rat cerebral cortex membrane homogenate
# Experiment: In vitro inhibition of 3H-α-bungarotoxine binding in rat brain
# Settings: rat cerebral cortex homogenate, 3H-α-bungarotoxine 2 nM
# T1 sequence (Q05941 23-502): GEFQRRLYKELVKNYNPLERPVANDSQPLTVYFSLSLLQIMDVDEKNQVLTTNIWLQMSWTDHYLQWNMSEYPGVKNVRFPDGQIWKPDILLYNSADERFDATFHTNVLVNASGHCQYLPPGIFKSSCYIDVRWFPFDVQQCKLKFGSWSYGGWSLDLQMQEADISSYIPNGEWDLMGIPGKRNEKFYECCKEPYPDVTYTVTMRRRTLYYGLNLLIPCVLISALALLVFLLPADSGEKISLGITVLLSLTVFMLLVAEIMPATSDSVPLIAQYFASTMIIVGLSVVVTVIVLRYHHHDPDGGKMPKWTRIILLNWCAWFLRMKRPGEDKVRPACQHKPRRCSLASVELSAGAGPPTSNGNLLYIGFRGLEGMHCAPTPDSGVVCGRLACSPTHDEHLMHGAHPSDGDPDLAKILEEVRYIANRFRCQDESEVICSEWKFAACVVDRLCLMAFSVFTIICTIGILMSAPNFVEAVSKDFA
row,SMILES,IC50
1,CN1C2CCCC1CN(C(=O)c1ccc(-c3ccc(N)cc3)o1)C2 [Compound B1],420 nM

# Tested on: not given
# Experiment: not given
# Settings: not given
row,SMILES,melting point
1,CN1C2CCCC1CN(C(=O)c1ccc(-c3ccc([N+](=O)[O-])cc3)o1)C2.Cl,263 °C
2,CN1C2CCCC1CN(C(=O)c1ccc(-c3ccc(NC(=O)c4ccccc4)cc3)o1)C2.O=C(O)/C=C/C(=O)O,246 to 252 °C
3,CCNC(=O)Nc1ccc(-c2ccc(C(=O)N3CC4CCCC(C3)N4C)o2)cc1.O=C(O)/C=C/C(=O)O,154 to 161 °C
4,CC(=O)Nc1ccc(-c2ccc(C(=O)N3CC4CCCC(C3)N4C)o2)cc1.O=C(O)/C=C/C(=O)O,197 to 229 °C
5,CN1C2CCCC1CN(C(=O)c1ccc(-c3ccc(N)cc3)o1)C2 [Compound B1],147 to 149 °C
